Results from US8673894B2 (Hoffmann-La Roche Inc., priority 2010, dated 2014).
Where a name gives a salt, the structure may show the parent alone.

Assays:
Aβ40 = assay: Cellular Aβ-lowering assay; assay type: cell-based; conditions: HEK293 cells stably expressing human APP695, Aβ40 in supernatant by ELISA after 18-20 hrs; read-out: Cellular assay Abeta40 IC50
Protocol: Cellular Aβ-Lowering Assay:
Human HEK293 cells which are stably transfected with a vector expressing a cDNA of the human APP wt gene (APP695) were used to assess the potency of the compounds in a cellular assay. The cells were seeded in 96-well microtiter plates in cell culture medium (Iscove, plus 10% (v/v) fetal bovine serum, glutamine, penicillin/streptomycin) to about 80% confluence and the compounds were added at a 10× concentration in 1/10 volume of medium without FCS containing 8% DMSO (final concentration of DMSO was kept at 0.8% v/v). After 18-20 hrs incubation at 37° C. and 5% CO2 in a humidified incubator the culture supernatant was harvested for the determination of Aβ40 concentrations. 96well ELISA plates (e.g., Nunc MaxiSorb) were coated with monoclonal antibody which specifically recognize the C-terminal end of Aβ40 (Brockhaus et al., NeuroReport 9, 1481-1486; 1998). After blocking of non-specific binding sites with e.g. 1% BSA and washing, the culture supernatants were added in suitable dilutions together with a horseradish peroxidase-coupled Aβ detection antibody (e.g., antibody 4G8, Senetek, Maryland Heights, Mo.) and incubated for 5 to 7 hrs. Subsequently the wells of the microtiter plate were washed extensively with Tris-buffered saline containing 0.05% Tween 20 and the assay was developed with tetramethylbenzidine/H2O2 in citric acid buffer. After stopping the reaction with one volume 1 N H2SO4 the reaction was measured in an ELISA reader at 450 nm wavelength. The concentrations of Aβ in the culture supernatants were calculated from a standard curve obtained with known amounts of pure Aβ peptide.

[1] = molecular target: T1, endogenous cellular BACE2 (Rattus norvegicus, UniProt Q6IE75); assay: Assay for BACE inhibition by measuring cellular TMEM27 cleavage; assay type: cell-based; conditions: INS-TMEM27 (INS1e-derived) cells, shed human TMEM27 in supernatant by ELISA
T1 construct: endogenous cellular BACE2 in the Ins1e rat cell line; endogenous in cells; host or cells: INS-TMEM27 (INS1e-derived rat insulinoma cell line with doxycycline-inducible full-length human TMEM27)
T1 sequence (Q6IE75 63-514): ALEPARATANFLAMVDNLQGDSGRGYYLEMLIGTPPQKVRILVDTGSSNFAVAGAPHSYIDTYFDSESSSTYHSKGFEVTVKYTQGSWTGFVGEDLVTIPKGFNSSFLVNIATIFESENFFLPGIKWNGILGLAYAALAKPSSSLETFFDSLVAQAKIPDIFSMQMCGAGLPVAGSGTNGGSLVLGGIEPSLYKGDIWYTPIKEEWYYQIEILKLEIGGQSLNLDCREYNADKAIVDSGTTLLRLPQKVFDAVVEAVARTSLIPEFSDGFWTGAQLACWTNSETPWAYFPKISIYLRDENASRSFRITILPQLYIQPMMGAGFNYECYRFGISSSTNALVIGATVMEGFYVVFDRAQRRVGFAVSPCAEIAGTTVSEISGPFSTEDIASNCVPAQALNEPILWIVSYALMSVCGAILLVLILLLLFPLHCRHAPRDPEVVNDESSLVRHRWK
Description: Assay for BACE Inhibition by Measuring Cellular TMEM27 Cleavage:
The assay uses the principle of inhibition of human TMEM27 cleavage by endogenous cellular BACE2 in the Ins1e rat cell line and shedding from the cell surface into the culture medium, followed by detection in an ELISA assay. Inhibition of BACE2 prevents the cleavage and shedding in a dose-dependent manner.
The stable cell line “INS-TMEM27” represents an INS1e-derived cell line with inducible expression (using the TetOn system) of full-length hTMEM27 in a doxycycline-dependent manner. The cells are cultured throughout the experiment in RPMI1640+ Glutamax (Invitrogen) Penicillin/Streptomycin, 10% Fetal bovine serum, […], […], 100 micrograms/ml G418 and 100 microgram/ml hygromycin and are grown inadherent culture at 37° C. in a standard CO2 cell culture incubator.
INS-TMEM27 cells are seeded in 96-well plates. After 2 days in culture, BACE2 inhibitor is added in a range of concentrations as required by the assay and after a further two hours, doxycycline is added to a final concentration of 500 ng/ml. The cells are incubated for a further 46 hours and the supernatant harvested for detection of shed TMEM27.
An ELISA assay (using a pair of mouse anti-human-TMEM27 antibodies, raised against the extracellular domain of TMEM27) is used for detection of TMEM27 in the culture medium. An EC50 for BACE2 inhibition is calculated using the ELISA readout for each inhibitor concentration with standard curve-fitting software such as XLFit for the Excel spreadsheet program.

| IC50 (Aβ40) [nM] | IC50 [1] [nM] | SMILES |
| --- | --- | --- |
| 7.2 | 3 | Cn1cc(Cl)c(C(=O)Nc2ccc(F)c([C@@]3(C)N=C(N)COCC3(F)F)c2)n1 [Example 41, (R)-N-(3-(3-amino-6,6-difluoro-5-methyl-2,5,6,7-tetrahydro-1,4-oxazepin-5-yl)-4-fluorophenyl)-4-chloro-1-methyl-1H-pyrazole-3-carboxamide formate] |
| 7.4 | 2.4 | Cc1nc(C(=O)Nc2ccc(F)c([C@@]3(C)N=C(N)COCC3(F)F)c2)co1 [Example 42, (R)-N-(3-(3-amino-6,6-difluoro-5-methyl-2,5,6,7-tetrahydro-1,4-oxazepin-5-yl)-4-fluorophenyl)-2-methyloxazole-4-carboxamide formate] |
| 23 | 4.7 | Cn1ccc(C(=O)Nc2ccc(F)c([C@@]3(C)N=C(N)COCC3(F)F)c2)n1 [Example 43, (R)-N-(3-(3-amino-6,6-difluoro-5-methyl-2,5,6,7-tetrahydro-1,4-oxazepin-5-yl)-4-fluorophenyl)-1-methyl-1H-pyrazole-3-carboxamide formate] |
| 2.4 | 1.2 | C[C@]1(c2cc(NC(=O)c3ccn(C(F)F)n3)ccc2F)N=C(N)COCC1(F)F [Example 44, (R)-N-(3-(3-amino-6,6-difluoro-5-methyl-2,5,6,7-tetrahydro-1,4-oxazepin-5-yl)-4-fluorophenyl)-1-(difluoromethyl)-1H-pyrazole-3-carboxamide formate] |
| 1.7 | 6.5 | C[C@]1(c2cc(NC(=O)c3ncc(Cl)cn3)ccc2F)N=C(N)COCC1(F)F [Example 46, 5-Chloro-pyrimidine-2-carboxylic acid [3-((R)-3-amino-6,6-difluoro-5-methyl-2,5,6,7-tetrahydro-[1,4]oxazepin-5-yl)-4-fluoro-phenyl]-amide] |
| 58 | 46 | CC1(C)OCC[C@@](C)(c2cc(NC(=O)c3ccc(Cl)cn3)ccc2F)N=C1N [Example 47, 5-Chloro-pyridine-2-carboxylic acid [3-((S)-3-amino-2,2,5-trimethyl-2,5,6,7-tetrahydro-[1,4]oxazepin-5-yl)-4-fluoro-phenyl]-amide] |
| 1 | 88 | C[C@]1(c2cc(NC(=O)c3ccc(OC(F)F)cn3)ccc2F)N=C(N)COCC1(F)F [Example 48, (R)-N-(3-(3-amino-6,6-difluoro-5-methyl-2,5,6,7-tetrahydro-1,4-oxazepin-5-yl)-4-fluorophenyl)-5-(difluoromethoxy)picolinamide formate] |
| 22 | 1110 | C[C@]1(c2cc(NC(=O)c3ccc(OCC(F)(F)F)cn3)ccc2F)N=C(N)COCC1(F)F [Example 49, (R)-N-(3-(3-amino-6,6-difluoro-5-methyl-2,5,6,7-tetrahydro-1,4-oxazepin-5-yl)-4-fluorophenyl)-5-(2,2,2-trifluoroethoxy)picolinamide formate] |
| 160 | 71 | CC1(C)OCC[C@@](C)(c2cc(NC(=O)c3ccc(F)cn3)ccc2F)N=C1N [Example 50, 5-Fluoro-pyridine-2-carboxylic acid [3-((S)-3-amino-2,2,5-trimethyl-2,5,6,7-tetrahydro-[1,4]oxazepin-5-yl)-4-fluoro-phenyl]-amide] |
| 49 | 120 | C[C@@]1(c2cc(NC(=O)c3ncc(C(F)(F)F)cc3Cl)ccc2F)COCCC(N)=N1 [Example 52, 3-Chloro-5-trifluoromethyl-pyridine-2-carboxylic acid [3-((R)-5-amino-3-methyl-2,3,6,7-tetrahydro-[1,4]oxazepin-3-yl)-4-fluoro-phenyl]-amide] |
| 10 | 41 | C[C@@]1(c2cc(NC(=O)c3ccc(C#N)cn3)ccc2F)COCCC(N)=N1 [Example 53, 5-Cyano-pyridine-2-carboxylic acid [3-((R)-5-amino-3-methyl-2,3,6,7-tetrahydro-[1,4]oxazepin-3-yl)-4-fluoro-phenyl]-amide] |
| 29 | 570 | C[C@]1(c2cc(NC(=O)c3ccc(OCC(F)(F)C(F)F)cn3)ccc2F)N=C(N)COCC1(F)F [Example 54, (R)-N-(3-(3-amino-6,6-difluoro-5-methyl-2,5,6,7-tetrahydro-1,4-oxazepin-5-yl)-4-fluorophenyl)-5-(2,2,3,3-tetrafluoropropoxy)picolinamide formate] |
| 140 | 190 | COC(C)C(=O)Nc1ccc(F)c([C@@]2(C)N=C(N)COCC2(F)F)c1 (stereo partly drawn) [Example 55, N-(3-((R)-3-amino-6,6-difluoro-5-methyl-2,5,6,7-tetrahydro-1,4-oxazepin-5-yl)-4-fluorophenyl)-2-methoxypropanamide formate] |
| 1.5 | 15.6 | C[C@]1(c2cc(NC(=O)c3ncc(C#N)cc3Cl)ccc2F)N=C(N)COCC1(F)F [Example 56, (R)-N-(3-(3-amino-6,6-difluoro-5-methyl-2,5,6,7-tetrahydro-1,4-oxazepin-5-yl)-4-fluorophenyl)-3-chloro-5-cyanopicolinamide formate] |
| 14 | 280 | CCOCc1ccc(C(=O)Nc2ccc(F)c([C@@]3(C)N=C(N)COCC3(F)F)c2)nc1 [Example 57, (R)-N-(3-(3-amino-6,6-difluoro-5-methyl-2,5,6,7-tetrahydro-1,4-oxazepin-5-yl)-4-fluorophenyl)-5-(ethoxymethyl)picolinamide formate] |
| 120 | 139 | CCOC(=O)c1ccc(C(=O)Nc2ccc(F)c([C@@]3(C)N=C(N)COCC3(F)F)c2)nc1 [Example 58, (R)-ethyl 6-(3-(3-amino-6,6-difluoro-5-methyl-2,5,6,7-tetrahydro-1,4-oxazepin-5-yl)-4-fluorophenylcarbamoyl)nicotinate formate formate] |
| 160 | 170 | C[C@]1(c2cc(NC(=O)c3ncccc3OCC(F)(F)F)ccc2F)N=C(N)COCC1(F)F [Example 59, (R)-N-(3-(3-amino-6,6-difluoro-5-methyl-2,5,6,7-tetrahydro-1,4-oxazepin-5-yl)-4-fluorophenyl)-3-(2,2,2-trifluoroethoxy)picolinamide] |
| 26 | 4160 | C[C@]1(c2cc(NC(=O)c3ccc(OCC(F)F)cn3)ccc2F)N=C(N)COCC1(F)F [Example 60, (R)-N-(3-(3-amino-6,6-difluoro-5-methyl-2,5,6,7-tetrahydro-1,4-oxazepin-5-yl)-4-fluorophenyl)-5-(2,2-difluoroethoxy)picolinamide formate] |
| 0.2 | 1 | C[C@]1(c2cc(NC(=O)c3ccc(Cl)cn3)ccc2F)N=C(N)COC[C@@H]1F [Example 61, N-(3-((5R,6R)-3-amino-6-fluoro-5-methyl-2,5,6,7-tetrahydro-1,4-oxazepin-5-yl)-4-fluorophenyl)-5-chloropicolinamide] |
| 1.8 | 1 | C[C@]1(c2cc(NC(=O)c3ccc(F)cn3)ccc2F)N=C(N)COC[C@@H]1F [Example 62, N-(3-((5R,6R)-3-amino-6-fluoro-5-methyl-2,5,6,7-tetrahydro-1,4-oxazepin-5-yl)-4-fluorophenyl)-5-fluoropicolinamide] |
